Data: US8445676B2, “Pyrrolotriazine kinase inhibitors” (Bristol-Myers Squibb Company, priority 2008, dated 2013)

Biological target: JAK2 (Homo sapiens, UniProt O60674)
Experiment: JAK2 Tyrosine Kinase Assay
Type: biochemical
Conditions: list of named compounds; read-out: IC50 in the JAK2 assay
Method: JAK2 Tyrosine Kinase Assay
The assays were performed in V-bottom 384-well plates. […] The reaction was initiated by the combination of JAK2 with substrates and test compounds. The reaction was incubated at room temperature for 60 min. and terminated by adding 45 μl of 35 mM EDTA to each sample. The reaction mixture was analyzed on the Caliper LabChip 3000 by electrophoretic separation of the fluorescent substrate and phosphorylated product. […] Compounds were dissolved at 10 mM in dimethylsulfoxide (DMSO) and evaluated at eleven concentrations, each in duplicate. IC50 values were derived by non-linear regression analysis

Sequence of JAK2 (O60674 whole entry): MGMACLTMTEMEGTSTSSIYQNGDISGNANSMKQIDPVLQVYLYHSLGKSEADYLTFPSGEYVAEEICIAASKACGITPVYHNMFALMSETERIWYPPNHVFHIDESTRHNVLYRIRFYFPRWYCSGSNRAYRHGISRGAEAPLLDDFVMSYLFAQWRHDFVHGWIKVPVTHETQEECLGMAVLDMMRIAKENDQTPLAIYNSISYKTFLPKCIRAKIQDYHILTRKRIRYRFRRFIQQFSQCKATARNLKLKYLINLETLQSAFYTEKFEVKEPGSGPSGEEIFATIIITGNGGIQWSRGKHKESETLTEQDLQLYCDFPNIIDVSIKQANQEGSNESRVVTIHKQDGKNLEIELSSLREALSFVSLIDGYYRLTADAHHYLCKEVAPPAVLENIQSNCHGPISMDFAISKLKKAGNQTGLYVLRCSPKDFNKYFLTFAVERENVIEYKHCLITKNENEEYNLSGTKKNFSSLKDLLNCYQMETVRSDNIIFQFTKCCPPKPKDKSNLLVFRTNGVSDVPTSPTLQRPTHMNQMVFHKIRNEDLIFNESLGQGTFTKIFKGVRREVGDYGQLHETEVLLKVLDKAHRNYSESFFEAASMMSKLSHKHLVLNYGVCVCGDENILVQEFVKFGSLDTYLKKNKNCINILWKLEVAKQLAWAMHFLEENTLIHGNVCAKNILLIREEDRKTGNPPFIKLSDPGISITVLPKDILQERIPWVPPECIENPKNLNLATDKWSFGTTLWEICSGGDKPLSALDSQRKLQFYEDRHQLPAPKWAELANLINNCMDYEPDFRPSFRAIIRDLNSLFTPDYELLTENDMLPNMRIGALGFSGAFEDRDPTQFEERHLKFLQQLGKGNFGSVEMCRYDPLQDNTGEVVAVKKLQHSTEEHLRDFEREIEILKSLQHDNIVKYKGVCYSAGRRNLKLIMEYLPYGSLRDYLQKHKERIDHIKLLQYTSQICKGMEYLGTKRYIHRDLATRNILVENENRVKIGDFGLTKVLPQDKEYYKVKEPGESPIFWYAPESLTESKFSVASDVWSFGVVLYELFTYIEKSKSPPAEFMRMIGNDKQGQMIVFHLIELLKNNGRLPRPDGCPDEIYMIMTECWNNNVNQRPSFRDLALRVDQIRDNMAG

| SMILES | IC50 [nM] |
| --- | --- |
| Cc1cc(Nc2nc(N3CCN(C(=O)Cc4cccc(OC(F)(F)F)c4)CC3)nn3cccc23)n[nH]1 [N-(5-methyl-1H-pyrazol-3-yl)-2-(4-((3-(trifluoromethoxy)phenyl)acetyl)-1-piperazinyl)pyrrolo[2,1-f][1,2,4]triazin-4-amine] | ≤ 5 |
| Cc1cc(Nc2nc(N3CCN(C(=O)c4ccccc4Oc4ccccc4)CC3)nn3cccc23)n[nH]1 [N-(5-methyl-1H-pyrazol-3-yl)-2-(4-(2-phenoxybenzoyl)-1-piperazinyl)pyrrolo[2,1-f][1,2,4]triazin-4-amine] | ≤ 5 |
| Cc1cc(Nc2nc(N3CCN(C(=O)[C@@H](O)Cc4ccccc4)CC3)nn3cccc23)n[nH]1 [(2S)-1-(4-(4-((5-methyl-1H-pyrazol-3-yl)amino)pyrrolo[2,1-f][1,2,4]triazin-2-yl)-1-piperazinyl)-1-oxo-3-phenyl-2-propanol] | ≤ 5 |
| Cc1cc(Nc2nc(N3CCN(C(=O)C4(C(F)(F)F)CCC4)CC3)nn3cccc23)n[nH]1 [N-(5-methyl-1H-pyrazol-3-yl)-2-(4-((1-(trifluoromethyl)cyclobutyl)carbonyl)-1-piperazinyl)pyrrolo[2,1-f][1,2,4]triazin-4-amine] | ≤ 5 |
| Cc1cc(Nc2nc(N3CCN(C(=O)c4cccc(Cl)c4)CC3)nn3cccc23)n[nH]1 [2-(4-(3-chlorobenzoyl)-1-piperazinyl)-N-(5-methyl-1H-pyrazol-3-yl)pyrrolo[2,1-f][1,2,4]triazin-4-amine] | ≤ 5 |
| CO[C@@H](C(=O)N1CCN(c2nc(Nc3cc(C)[nH]n3)c3cccn3n2)CC1)c1ccccc1 [2-(4-((2R)-2-methoxy-2-phenylacetyl)-1-piperazinyl)-N-(5-methyl-1H-pyrazol-3-yl)pyrrolo[2,1-f][1,2,4]triazin-4-amine] | ≤ 5 |
| Cc1cc(Nc2nc(N3CCN(C(=O)c4cccc(C#N)c4)CC3)nn3cccc23)n[nH]1 [3-((4-(4-((5-methyl-1H-pyrazol-3-yl)amino)pyrrolo[2,1-f][1,2,4]triazin-2-yl)-1-piperazinyl)carbonyl)benzonitrile] | ≤ 5 |
| Cc1cc(Nc2nc(N3CCN(C(=O)C4(c5c(F)cccc5Cl)CCCCC4)CC3)nn3cccc23)n[nH]1 [2-(4-((1-(2-chloro-6-fluorophenyl)cyclohexyl)carbonyl)-1-piperazinyl)-N-(5-methyl-1H-pyrazol-3-yl)pyrrolo[2,1-f][1,2,4]triazin-4-amine] | ≤ 5 |
| Cc1cc(Nc2nc(N3CCN(C(=O)[C@@H](O)c4ccccc4)CC3)nn3cccc23)n[nH]1 [(1S)-2-(4-(4-((5-methyl-1H-pyrazol-3-yl)amino)pyrrolo[2,1-f][1,2,4]triazin-2-yl)-1-piperazinyl)-2-oxo-1-phenylethanol] | ≤ 5 |
| Cc1cc(Nc2nc(N3CCN(C(=O)[C@@H](NC(=O)OC(C)(C)C)c4ccc(F)cc4)CC3)nn3cccc23)n[nH]1 [tert-butyl((1S)-1-(4-fluorophenyl)-2-(4-(4-((5-methyl-1H-pyrazol-3-yl)amino)pyrrolo[2,1-f][1,2,4]triazin-2-yl)-1-piperazinyl)-2-oxoethyl)carbamate] | ≤ 5 |
| Cc1cc(Nc2nc(N3CCN(C(=O)[C@H](O)c4ccccc4)CC3)nn3cccc23)n[nH]1 [(1R)-2-(4-(4-((5-methyl-1H-pyrazol-3-yl)amino)pyrrolo[2,1-f][1,2,4]triazin-2-yl)-1-piperazinyl)-2-oxo-1-phenylethanol] | ≤ 5 |
| Cc1cc(Nc2nc(N3CCN(C(=O)c4ccccc4C(F)(F)F)CC3)nn3cccc23)n[nH]1 [N-(5-methyl-1H-pyrazol-3-yl)-2-(4-(2-(trifluoromethyl)benzoyl)-1-piperazinyl)pyrrolo[2,1-f][1,2,4]triazin-4-amine] | ≤ 5 |
| COc1ccc(C(=O)N2CCN(c3nc(Nc4cc(C)[nH]n4)c4cccn4n3)CC2)cc1 [2-(4-(4-methoxybenzoyl)-1-piperazinyl)-N-(5-methyl-1H-pyrazol-3-yl)pyrrolo[2,1-f][1,2,4]triazin-4-amine] | ≤ 5 |
| Cc1cccc(C(=O)N2CCN(c3nc(Nc4cc(C)[nH]n4)c4cccn4n3)CC2)c1 [2-(4-(3-methylbenzoyl)-1-piperazinyl)-N-(5-methyl-1H-pyrazol-3-yl)pyrrolo[2,1-f][1,2,4]triazin-4-amine] | ≤ 5 |
| CC[C@H](C(=O)N1CCN(c2nc(Nc3cc(C)[nH]n3)c3cccn3n2)CC1)c1ccccc1 [N-(5-methyl-1H-pyrazol-3-yl)-2-(4-((2S)-2-phenylbutanoyl)-1-piperazinyl)pyrrolo[2,1-f][1,2,4]triazin-4-amine] | ≤ 5 |
| Cc1cc(Nc2nc(N3CCN(C(=O)c4cccnc4C)CC3)nn3cccc23)n[nH]1 [N-(5-methyl-1H-pyrazol-3-yl)-2-(4-((2-methyl-3-pyridinyl)carbonyl)-1-piperazinyl)pyrrolo[2,1-f][1,2,4]triazin-4-amine] | ≤ 5 |
| Cc1csc(C(=O)N2CCN(c3nc(Nc4cc(C)[nH]n4)c4cccn4n3)CC2)c1 [N-(5-methyl-1H-pyrazol-3-yl)-2-(4-((4-methyl-2-thienyl)carbonyl)-1-piperazinyl)pyrrolo[2,1-f][1,2,4]triazin-4-amine] | ≤ 5 |

| SMILES | IC50 [nM] |
| --- | --- |
| Cc1cc(Nc2nc(N3CCN(C(=O)C4(c5ccccc5)CC4)CC3)nn3cccc23)n[nH]1 [N-(5-methyl-1H-pyrazol-3-yl)-2-(4-((1-phenylcyclopropyl)carbonyl)-1-piperazinyl)pyrrolo[2,1-f][1,2,4]triazin-4-amine] | ≤ 5 |
| Cc1cc(Nc2nc(N3CCN(C(=O)Cc4cccc(F)c4)CC3)nn3cccc23)n[nH]1 [2-(4-((3-fluorophenyl)acetyl)-1-piperazinyl)-N-(5-methyl-1H-pyrazol-3-yl)pyrrolo[2,1-f][1,2,4]triazin-4-amine] | ≤ 5 |
| CCC(C)(C)C(=O)N1CCN(c2nc(Nc3cc(C)[nH]n3)c3cccn3n2)CC1 [2-(4-(2,2-dimethylbutanoyl)-1-piperazinyl)-N-(5-methyl-1H-pyrazol-3-yl)pyrrolo[2,1-f][1,2,4]triazin-4-amine] | ≤ 5 |
| Cc1cc(Nc2nc(N3CCN(C(=O)C4Cc5ccccc54)CC3)nn3cccc23)n[nH]1 (stereo not drawn) [2-(4-(bicyclo[4.2.0]octa-1,3,5-trien-7-ylcarbonyl)-1-piperazinyl)-N-(5-methyl-1H-pyrazol-3-yl)pyrrolo[2,1-f][1,2,4]triazin-4-amine] | ≤ 5 |
| Cc1cc(Nc2nc(N3CCN(C(=O)C4(NC(=O)OC(C)(C)C)CCc5ccccc54)CC3)nn3cccc23)n[nH]1 (stereo not drawn) [tert-butyl (1-((4-(4-((5-methyl-1H-pyrazol-3-yl)amino)pyrrolo[2,1-f][1,2,4]triazin-2-yl)-1-piperazinyl)carbonyl)-2,3-dihydro-1H-inden-1-yl)carbamate] | ≤ 5 |
| Cc1cc(Nc2nc(N3CCN(C(=O)c4ccccc4Br)CC3)nn3cccc23)n[nH]1 [2-(4-(2-bromobenzoyl)-1-piperazinyl)-N-(5-methyl-1H-pyrazol-3-yl)pyrrolo[2,1-f][1,2,4]triazin-4-amine] | ≤ 5 |
| Cc1cc(Nc2nc(N3CCN(C(=O)c4ccc(F)cc4)CC3)nn3cccc23)n[nH]1 [2-(4-(4-fluorobenzoyl)-1-piperazinyl)-N-(5-methyl-1H-pyrazol-3-yl)pyrrolo[2,1-f][1,2,4]triazin-4-amine] | ≤ 5 |
| Cc1cc(Nc2nc(N3CCN(C(=O)C(NC(=O)OC(C)(C)C)c4ccc(Cl)cc4)CC3)nn3cccc23)n[nH]1 (stereo not drawn) [tert-butyl (1-(4-chlorophenyl)-2-(4-(4-((5-methyl-1H-pyrazol-3-yl)amino)pyrrolo[2,1-f][1,2,4]triazin-2-yl)-1-piperazinyl)-2-oxoethyl)carbamate] | ≤ 5 |
| Cc1cc(Nc2nc(N3CCN(C(=O)C(C)(C)c4ccc(Cl)cc4)CC3)nn3cccc23)n[nH]1 [2-(4-(2-(4-chlorophenyl)-2-methylpropanoyl)-1-piperazinyl)-N-(5-methyl-1H-pyrazol-3-yl)pyrrolo[2,1-f][1,2,4]triazin-4-amine] | ≤ 5 |
| CCC(C(=O)N1CCN(c2nc(Nc3cc(C)[nH]n3)c3cccn3n2)CC1)c1ccccc1 (stereo not drawn) [N-(5-methyl-1H-pyrazol-3-yl)-2-(4-(2-phenylbutanoyl)-1-piperazinyl)pyrrolo[2,1-f][1,2,4]triazin-4-amine] | ≤ 5 |
| CC(=O)NC(C(=O)N1CCN(c2nc(Nc3cc(C)[nH]n3)c3cccn3n2)CC1)c1ccccc1 (stereo not drawn) [N-(2-(4-(4-((5-methyl-1H-pyrazol-3-yl)amino)pyrrolo[2,1-f][1,2,4]triazin-2-yl)-1-piperazinyl)-2-oxo-1-phenylethyl)acetamide] | ≤ 5 |
| Cc1cc(Nc2nc(N3CCN(C(=O)C4(c5ccccc5)CCCC4)CC3)nn3cccc23)n[nH]1 [N-(5-methyl-1H-pyrazol-3-yl)-2-(4-((1-phenylcyclopentyl)carbonyl)-1-piperazinyl)pyrrolo[2,1-f][1,2,4]triazin-4-amine] | ≤ 5 |
| Cc1cc(Nc2nc(N3CCN(C(=O)Cc4cccc(C(F)(F)F)c4)CC3)nn3cccc23)n[nH]1 [N-(5-methyl-1H-pyrazol-3-yl)-2-(4-((3-(trifluoromethyl)phenyl)acetyl)-1-piperazinyl)pyrrolo[2,1-f][1,2,4]triazin-4-amine] | ≤ 5 |
| Cc1cc(Nc2nc(N3CCN(C(=O)c4cc(Cl)ccc4Cl)CC3)nn3cccc23)n[nH]1 [2-(4-(2,5-dichlorobenzoyl)-1-piperazinyl)-N-(5-methyl-1H-pyrazol-3-yl)pyrrolo[2,1-f][1,2,4]triazin-4-amine] | ≤ 5 |
| COc1ccc(CC(=O)N2CCN(c3nc(Nc4cc(C)[nH]n4)c4cccn4n3)CC2)cc1 [2-(4-((4-methoxyphenyl)acetyl)-1-piperazinyl)-N-(5-methyl-1H-pyrazol-3-yl)pyrrolo[2,1-f][1,2,4]triazin-4-amine] | ≤ 5 |
| Cc1cc(Nc2nc(N3CCN(C(=O)C(O)c4ccc(F)cc4)CC3)nn3cccc23)n[nH]1 (stereo not drawn) [1-(4-fluorophenyl)-2-(4-(4-((5-methyl-1H-pyrazol-3-yl)amino)pyrrolo[2,1-f][1,2,4]triazin-2-yl)-1-piperazinyl)-2-oxoethanol] | ≤ 5 |
